# Data from US8043623B2, “Immunogenic peptides for the treatment of prostate and breast cancer” (The Government of the United States of America as …, priority 2003, dated 2011).
# “Also recorded” adds a separate entry of the source.
# Key:
# MCF-7 = assay: CTL assay against human tumor cells (MCF-7); format: cell-based
# Procedure: (§1) In vitro human CD8^+ T cell priming with DC. Elutriated monocytes and lymphocytes were obtained from HLA-A2.1-positive patients or normal donors. To prepare DC, monocytes were cultured at 10^6 cells/ml in complete medium containing human IL-4 (1000 units/ml) and human GM-CSF (1000 units/ml). On day 2 and 4, half of the media was exchanged. To mature the DC, CD40 ligand trimer (Immunex, Seattle, Wash.) was added at 1 μg/ml on day 4 or 5, and then further cultured for 2 or 3 days. Cells were harvested on day 7, and then pulsed with 10 μM of peptides for 2 hours before γ-irradiation. 1×10^5 peptide-pulsed DC and 2×10^6 autologous CD8^+ T cells were mixed and cultured in 24-well plates. 10 units/ml IL-2 was added on day 2 during restimulation. Cells were restimulated every 7-9 days approximately 4-7 cycles.
# (§2) CTL assay. For murine CTL, CD8^+ T cells from the immunized mice were restimulated with peptide-loaded splenocytes for one week as previously described (Oh et al., J Immunol 170:2523, 2003), and then applied to 5 hour ^51Cr release assays. Target cells were labeled with ^51Cr first and washed twice. Cells were then pulsed with peptides for 2 hours and used as target cells without further washing. For human CTL, target cells were also labeled with ^51Cr first, and then loaded with peptides. In the CTL assay against human tumor cells, target cells were incubated in the complete medium containing 1000 units/ml IFN-γ for 72 hours. The mean of triplicate samples was calculated, and the percentage of specific lysis was determined using the following formula: Percentage of specific lysis=100×[(experimental ^51Cr release−control ^51Cr release)/(maximum ^51Cr release−control ^51Cr release)]. The maximum release refers to counts from targets in 2.5% Triton X-100.
# A2K^b transgenic mice = assay: Immunization of A2K^b transgenic mice; murine CTL assay and intracellular IFN-γ staining; format: in vivo
# Procedure: Immunizations. A2K^b transgenic mice were immunized with syngeneic peptide-loaded dendritic cells (DC), plasmid DNA expressing TARP, or the mixture of peptide and cytokine in incomplete Freund's adjuvant (IFA). For DC immunization, DC were pulsed with 10 μM peptide in serum-free RPMI for 2 hours at 37° C., and then mice were immunized subcutaneously (s.c.) with 1-3×10^5 DC without washing. DC were prepared from bone marrow as previously described (Celluzzi et al. J. Exp. Med. 183:283, 1996). Alternatively, mice were immunized intramuscularly with 100 μg plasmid DNA, pcDNA5/FRT/TARP, generated by inserting the TARP DNA into the pcDNA5/RFT (Invitrogen, Carlsbad, Calif.) vector. Mice were also immunized subcutaneously (s.c.) in the base of the tail with 100 μl of an emulsion containing 1:1 IFA and PBS with antigens and cytokines (50 nmol CTL epitope, 50 nmol HBV core 128-140 helper epitope, 3 μg of IL-12, and 5 μg of granulocyte macrophage colony stimulating factor (GM-CSF). IFA and cytokines were purchased from Sigma and Peptotech (Rocky Hill, N.J.), respectively.
# as §2
# Antibody and flow cytometry. FITC-labeled anti-mouse CD8 (53-6.7), CD11c, CD80 (B7-1), CD54 (ICAM-1), anti-human CD8 (RPA-T8), CD14 (M5E2), CD80 (B7-1), and CD86 (B7-2) were used for staining of cell surface molecules. For intracellular IFN-γ staining, cells were stained by following the manufacturer's protocol. All Abs and reagents were purchased from PharMingen. For flow cytometric analysis of cell surface, 5×10^5 cells were washed and resuspended in PBS containing 0.2% BSA and 0.1% sodium azide. Cells were incubated on ice with the appropriate antibody for 30 minutes and then washed. Samples were analyzed on a FACScan (BD Biosciences, Mountain View, Calif.). Background staining was assessed by use of an isotype control antibody. For tetramer staining, cells were incubated with FITC-labeled anti-CD8 for 10 minutes, and then stained with tetramers.
# [1] = tested on: peptide-pulsed C1R-A2.1 target cells; assay: Human CTL 5-hour ^51Cr release assay on peptide-pulsed targets; format: cell-based
# Procedure: as §1, §2
# CD8^+ T cells = assay: In vitro human CD8^+ T cell priming with peptide-pulsed DC; format: cell-based; details: CD8^+ T cells of an HLA-A2.1-positive prostate cancer patient, peptide-pulsed autologous DC
# Procedure: as §1
# HLA-A2.1 molecules = molecular target: T1, HLA-A2.1 molecules (Homo sapiens, UniProt P04439, D140Y/D185E/D98H/E176V/E277Q/G131W/G231S/I119V/I121R/I166T/I218V/L300P/L318F/N151K/N90K/P208A/P217A/Q86G/Q94H/R138H/R169H/T345S); assay: T2-binding assay; details: T2 cells
# T1 construct: The T2 cell line is deficient in TAP1 and TAP2 transporter proteins and expresses low levels of HLA-A2.1; endogenous in cells; host or cells: T2 cell line (TAP1/TAP2-deficient)
# Procedure: T2-binding assay. Peptide binding capacity to HLA-A2.1 molecules was measured by using the T2 cell line according to a protocol previously described (Nijman et al., Eu. J. Immunol. 23:1215, 1993). T2 cells (3×10^5/well) were incubated overnight in 96-well plates with culture medium (1:1 mixture of RPMI 1640/EHAA containing 2.5% FBS, 100 U/ml penicillin, 100 μg/ml streptomycin) with 10 μg/ml β2-microglobulin (Sigma) and different concentrations of peptide. Cells were washed twice with cold PBS containing 2% FBS and incubated for 30 minutes at 4° C. with anti-HLA-A2.1 BB7.2 mAb ( 1/80 dilution from hybridoma supernatant). After washing, cells were stained with FITC-labeled goat anti-mouse Ig (PharMingen, San Diego, Calif.) and the level of HLA-A2.1 expression was measured by flow cytometry. HLA-A2.1 expression was quantified as fluorescence index (FI) according to the formula: FI=(mean fluorescence intensity with peptide-mean fluorescence intensity without peptide)/mean fluorescence intensity without peptide.
sequence,measurement,setting,value
FLANFSLML (TARP peptide with a R3A substitution.) [TARP-29-37-3A],lytic activity against MCF-7 of CD8^+ CTL specific for the peptide,"MCF-7; 50:1 E/T ratio, targets pre-incubated with IFN-γ 72 hours",less lytic activity to MCF-7; also recorded: much lower lytic activity against tumor cells than CTLs to TARP-29-37-9V
same,lytic activity against MCF-7 of CD8^+ CTL specific for the peptide,MCF-7; 100:1 E/T ratio,comparable range of lytic activity against MCF-7 cells; also recorded: significant range of specific lysis only at a 100:1 E:T ratio
same,cross-reactivity of murine CD8^+ CTL induced with the peptide: recognition of wild-type TARP-29-37 and other peptides on pulsed targets,"A2K^b transgenic mice; Jurkat-HLA-A2 targets pulsed with peptides, ^51Cr release",recognized TARP-29-37-3A/MHC complex better than other peptide/MHC Class I complexes; also recorded: weak cross-reactivity to wild-type peptide in the mice
same,killing of target cells pulsed with TARP-27-35 by murine CTL induced with the peptide,A2K^b transgenic mice; ^51Cr release,did not kill target cells pulsed with TARP-27-35
same,"frequency of CD8^+ T cells specific for the individual peptide, compared to wild-type TARP-29-37","A2K^b transgenic mice; mice immunized s.c. with peptide and cytokine in adjuvant, IFN-γ staining",almost two-fold higher frequencies of CD8^+ T cells; also recorded: high CD8^+ T cell responses in transgenic mice
same,cytolytic activity of human CD8^+ CTL raised with the peptide against targets pulsed with the corresponding peptide,[1]; C1R-A2.1 targets,higher levels of cytolytic activity against the corresponding peptides
same,recognition of TARP-27-35 by human CTL raised with the peptide,[1]; C1R-A2.1 targets,to some extent
same,"cross-reactivity of human CD8^+ CTL raised with the peptide to other peptides (wild-type TARP-29-37, enhanced epitopes)",[1]; C1R-A2.1 targets pulsed with 10 μM peptides,poorly recognized the wild-type and TARP-29-37-9V; also recorded: did not recognize other peptides as much as they did the immunogens; also recorded: did not recognize wild-type peptide very well in the human
same,peptide concentration at which CTLs specific for TARP-29-37-9V recognize targets pulsed with the named peptide (avidity),"[1]; label = peptide pulsed on targets, effector = TARP-29-37-9V-specific human CTL",only slightly lower avidity
same,cycles of in vitro restimulation needed to detect peptide-specific CD8^+ T cells,CD8^+ T cells,after only four cycles
same,binding affinity to HLA-A2.1 molecules compared with another peptide,HLA-A2.1 molecules,"greatest increase in the binding affinity; also recorded: not less than that of the positive control peptide, FMP; also recorded: highest binding affinity"
